# Source: patent US8012463B2, “Coordination complex of diaminocyclohexaneplatinum(II) with block copolymer containing poly(carboxylic acid) segment and antitumor agent comprising the same” (Toudai TLO, Ltd., priority 2003, dated 2011)
# Tests used:
# [1] = tested on: mouse colon 26 (C-26) cell strain; test: Cytotoxicity in vitro, growth inhibition by MTT method; type: cell-based; details: C-26 cells
# Description: Growth inhibiting activities of free CDDP, CDDP micelle, DACH Pt micelle, mixtures of DACH Pt micelle and CDDP micelle at various mixing ratios (1/3, 1/1 and 3/1) against mouse colon 26 (C-26) cell strain were evaluated with MTT method. 5,000 cells were cultured in a 96 well-multiplate supplied with 50 μl of RPMI 1640 medium containing 10% fetal bovine serum. The cells were exposed to drugs for 48 and 72 hours. MTT solution was added, and 150 μl of a solution containing 10 wt % of sodium dodecylsulfate (SDS) supplemented with 0.01M HCl was added after 6 hours. Viability of cells was then measured based on optical density at 570 nm of formazan produced after 24 hours.
# ascites sarcoma 180 = details: cited from earlier work
compound,measurement,setting,value
"N.N.[Cl][Pt][Cl] [Free CDDP, Cisplatin]",IC50,[1]; culture time 48 hours,1.5 µg/mL
same,IC50,[1]; culture time 72 hours,0.65 µg/mL
NC1CCCCC1N.O=C([O-])CC(=O)[O-].[Pt+2] (centres unmarked) [Pt(malonato)-(dach)],therapeutic index relative to Pt(oxalato)-(cis-dach),ascites sarcoma 180; in vivo,half or less
same,ED90 dose compared with Pt(oxalato)-(dach),ascites sarcoma 180; ratio to Pt(oxalato)-(dach),≥ 5 times
O=C1[O][Pt-2]2([NH2+]C3CCCC[C@H]3[NH2+]2)[O]C1=O (some centres unmarked) [Pt(oxalato)-(dach)],ED90,ascites sarcoma 180; experimental animals bearing ascites sarcoma 180,excellent ED90
